Measurements reported in patent publication US9751861B2, “N1-(3,3,3-trifluoro-2-hydroxo-2-methylpropionyl)-piperidine derivatives as inhibitors of pyruvate dehydrogenase kinase” (MERCK PATENT GMBH, priority 2013, dated 2017).

Experiments:
[1] = biological target: T1, PDHK2 (Homo sapiens, UniProt Q15119); experiment: Biochemical activity testing of PDHK2: PDC inactivation assay; conditions: human rec PDHK2, PDC from porcine heart, ATP 5 μM; read-out: IC50 PDHK2 (enzyme assay)
T1 construct: purchased Carna Bioscience
In short: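 Human recombinant PDHK2 (137 nM final) preincubated 30 min at RT with porcine heart PDC (20 mU/ml) and compound in pH 7.0 phosphate buffer, then phosphorylated with 5 μM ATP for 30 min at 37 °C. Residual PDC activity read as NADH fluorescence increase (Ex 340/Em 450) over 45 min; inhibitor-free reaction as full value, 3 mM DCA as zero, IC50 derived.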

[2] = biological target: T2, human PDHK2 (12-407) (Homo sapiens, UniProt Q15119); experiment: Isothermal titration calorimetry (ITC) binding; conditions: 30° C., pH 7.5
T2 construct: The human PDHK2 (12-407) was produced in E. coli; His-tag (cleaved yes); made in house; host or cells: E. coli
In short: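 Untagged PDHK2 (12-407) from E. coli at 50 μM titrated into 5 μM compound at 30° C in pH 7.5 HEPES/KCl/MgCl2/phosphate buffer, ≤1% DMSO. One-site fit gave KA, ΔH^obs and N after heat-of-dilution correction; protein concentration referenced to a standard inhibitor and compound concentration adjusted to 1:1 stoichiometry.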

[3] = test system: PDH-Elalpha (pSer300); experiment: Cellular immunofluorescence assay in HEK293T cells; type: cell-based; conditions: Homo sapiens, HEK-293T, 5 hours incubation, anti-PDH-E1alpha pSer300 immunofluorescence, read-out: IC50 (cell data)
Procedure: Cellular Assay for Determination of Compound Activities
Compound activities were determined in a cellular immunofluorescence assay. Human HEK293T cells were seeded into black 384-well plates with clear bottom and grown overnight.
Next day, test compounds were added to the wells and the plates incubated for 5 hours. Following this, cells were fixed with formaldehyde, permeabilised and blocked. The primary antibody, Anti-PDH-Elalpha (pSer300), AP1064 (Merck Millipore) was added and incubated overnight in the plate wells. Next, cells were washed and the seconday antibody, Alexa Fluor 488, goat anti-rabbit ab (A-11008, Invitrogen) was added together with Hoechst 33258 (H3569, Invitrogen) and incubated for 1 hour in the plate wells. Finally, cells were washed and the plates were measured on the laser scanning cytometer acumen hci (TTpLabtech).
The raw data were normalized against a pharmacological inhibitor control and dose response curves were generated by plotting the percent effect values using the software package Genedata screener (Genedata).

SMILES	IC50 [1]	Kd [2]	IC50 [3]
C[C@@](O)(C(=O)N1CCC(c2ccnn2-c2cccc(Cl)c2F)CC1)C(F)(F)F [Compound A15, (R)-1-{4-[2-(3-Chloro-2-fluoro-phenyl)-2H-pyrazol-3-yl]-piperidin-1-yl}-3,3,3-trifluoro-2-hydroxy-2-methyl-propan-1-one]	< 300 nM	< 300 nM	< 300 nM
Cc1ccc(-n2nccc2C2CCN(C(=O)[C@@](C)(O)C(F)(F)F)CC2)c(F)c1 [Compound A16, (R)-3,3,3-Trifluoro-1-{4-[2-(2-fluoro-4-methyl-phenyl)-2H-pyrazol-3-yl]-piperidin-1-yl}-2-hydroxy-2-methyl-propan-1-one]	< 300 nM	< 300 nM	300 to 3000 nM
CC(C)(C)n1nccc1C1CCN(C(=O)[C@@](C)(O)C(F)(F)F)CC1 [Compound A17, (R)-1-[4-(2-tert-Butyl-2H-pyrazol-3-yl)-piperidin-1-yl]-3,3,3-trifluoro-2-hydroxy-2-methyl-propan-1-one]	300 to 3000 nM	< 300 nM	300 to 3000 nM
C[C@@](O)(C(=O)N1CCC(c2ccnn2-c2ccc(C(F)(F)F)cc2Cl)CC1)C(F)(F)F [Compound A18, (R)-1-{4-[2-(2-Chloro-4-trifluoromethyl-phenyl)-2H-pyrazol-3-yl]-piperidin-1-yl}-3,3,3-trifluoro-2-hydroxy-2-methyl-propan-1-one]	< 300 nM	< 300 nM	300 to 3000 nM
C[C@@](O)(C(=O)N1CCC(c2ccnn2-c2ncc(Br)cn2)CC1)C(F)(F)F [Compound A19, (R)-1-{4-[2-(5-Bromo-pyrimidin-2-yl)-2H-pyrazol-3-yl]-piperidin-1-yl}-3,3,3-trifluoro-2-hydroxy-2-methyl-propan-1-one]	300 to 3000 nM	< 300 nM	300 to 3000 nM
CC(C)(O)c1ccc(-n2nccc2C2CCN(C(=O)[C@@](C)(O)C(F)(F)F)CC2)cc1 [Compound A20, (R)-3,3,3-Trifluoro-2-hydroxy-1-(4-{2-[4-(1-hydroxy-1-methyl-ethyl)-phenyl]-2H-pyrazol-3-yl}-piperidin-1-yl)-2-methyl-propan-1-one]	< 300 nM	< 300 nM	300 to 3000 nM
CC(C)(C)c1ccc(-n2nccc2C2CCN(C(=O)[C@@](C)(O)C(F)(F)F)CC2)cc1 [Compound A21, (R)-1-{4-[2-(4-tert-Butyl-phenyl)-2H-pyrazol-3-yl]-piperidin-1-yl}-3,3,3-trifluoro-2-hydroxy-2-methyl-propan-1-one]	300 to 3000 nM	< 300 nM	300 to 3000 nM
CC(C)c1ccc(-n2nccc2C2CCN(C(=O)[C@@](C)(O)C(F)(F)F)CC2)cc1 [Compound A22, (R)-3,3,3-Trifluoro-2-hydroxy-1-{4-[2-(4-isopropyl-phenyl)-2H-pyrazol-3-yl]-piperidin-1-yl}-2-methyl-propan-1-one]	300 to 3000 nM	< 300 nM	300 to 3000 nM
C[C@@](O)(C(=O)N1CCC(c2ccnn2-c2ccc(Cl)cc2F)CC1)C(F)(F)F [Compound A23, (R)-1-{4-[2-(4-Chloro-2-fluoro-phenyl)-2H-pyrazol-3-yl]-piperidin-1-yl}-3,3,3-trifluoro-2-hydroxy-2-methyl-propan-1-one]	< 300 nM	< 300 nM	300 to 3000 nM
CCc1ccc(-n2nccc2C2CCN(C(=O)[C@@](C)(O)C(F)(F)F)CC2)cc1 [Compound A24, (R)-1-{4-[2-(4-Ethyl-phenyl)-2H-pyrazol-3-yl]-piperidin-1-yl}-3,3,3-trifluoro-2-hydroxy-2-methyl-propan-1-one]	< 300 nM	< 300 nM	300 to 3000 nM
C[C@@](O)(C(=O)N1CCC(c2ccnn2-c2ccccc2)CC1)C(F)(F)F [Compound A25, (R)-3,3,3-Trifluoro-2-hydroxy-2-methyl-1-[4-(2-phenyl-2H-pyrazol-3-yl)piperidin-1-yl]-propan-1-one]	300 to 3000 nM	< 300 nM	300 to 3000 nM
C[C@@](O)(C(=O)N1CCC(c2ccnn2-c2ccc(F)cc2F)CC1)C(F)(F)F [Compound A26, (R)-1-{4-[2-(2,4-Difluoro-phenyl)-2H-pyrazol-3-yl]-piperidin-1-yl}-3,3,3-trifluoro-2-hydroxy-2-methyl-propan-1-one]	< 300 nM	< 300 nM	300 to 3000 nM
C[C@@](O)(C(=O)N1CCC(c2ccnn2-c2ccc(C(F)(F)F)cc2)CC1)C(F)(F)F [Compound A27, (R)-3,3,3-Trifluoro-2-hydroxy-2-methyl-1-{4-[2-(4-trifluoromethyl-phenyl)-2H-pyrazol-3-yl]-piperidin-1-yl}-propan-1-one]	< 300 nM	< 300 nM	300 to 3000 nM
COc1ccc(-n2nccc2C2CCN(C(=O)[C@@](C)(O)C(F)(F)F)CC2)c(F)c1 [Compound A28, (R)-3,3,3-Trifluoro-1-{4-[2-(2-fluoro-4-methoxy-phenyl)-2H-pyrazol-3-yl]-piperidin-1-yl}-2-hydroxy-2-methyl-propan-1-one]	< 300 nM	< 300 nM	300 to 3000 nM
C[C@@](O)(C(=O)N1CCC(c2cc(C(F)(F)F)nn2-c2ccc(Cl)cc2)CC1)C(F)(F)F [Compound A35, (R)-1-{4-[2-(4-Chloro-phenyl)-5-trifluoromethyl-2H-pyrazol-3-yl]-piperidin-1-yl}-3,3,3-trifluoro-2-hydroxy-2-methyl-propan-1-one]	< 300 nM	< 300 nM	300 to 3000 nM
CC(C)n1nccc1C1CCN(C(=O)[C@@](C)(O)C(F)(F)F)CC1 [Compound A36, (R)-1-[4-(2-Isopropyl-2H-pyrazol-3-yl)-piperidin-1-yl]-3,3,3-trifluoro-2-hydroxy-2-methyl-propan-1-one]	300 to 3000 nM	< 300 nM	3000 to 50000 nM
C[C@@](O)(C(=O)N1CCC(c2ccnn2C2CCCCC2)CC1)C(F)(F)F [Compound A37, (R)-1-[4-(2-Cyclohexyl-2H-pyrazol-3-yl)-piperidin-1-yl]-3,3,3-trifluoro-2-hydroxy-2-methyl-propan-1-one]	300 to 3000 nM	< 300 nM	3000 to 50000 nM
C[C@@](O)(C(=O)N1CCC(c2ccnn2Cc2ccccc2)CC1)C(F)(F)F [Compound A38, (R)-1-[4-(2-Benzyl-2H-pyrazol-3-yl)-piperidin-1-yl]-3,3,3-trifluoro-2-hydroxy-2-methyl-propan-1-one]	300 to 3000 nM	< 300 nM	300 to 3000 nM
C[C@@](O)(C(=O)N1CCC(c2ccnn2-c2ccc(F)cc2Cl)CC1)C(F)(F)F [Compound A39, (R)-1-{4-[2-(2-Chloro-4-fluoro-phenyl)-2H-pyrazol-3-yl]-piperidin-1-yl}-3,3,3-trifluoro-2-hydroxy-2-methyl-propan-1-one]	< 300 nM	< 300 nM	300 to 3000 nM
Cc1cc(C2CCN(C(=O)[C@@](C)(O)C(F)(F)F)CC2)n(-c2ccc(F)cc2)n1 [Compound A41, (R)-1-{4-[2-(4-Fluoro-phenyl)-5-methyl-2H-pyrazol-3-yl]-piperidin-1-yl}-3,3,3-trifluoro-2-hydroxy-2-methyl-propan-1-one]	< 300 nM	< 300 nM	300 to 3000 nM
C[C@@](O)(C(=O)N1CCC(c2cc(C(F)(F)F)nn2-c2ccc(F)cc2)CC1)C(F)(F)F [Compound A42, (R)-1-{4-[2-(4-Fluoro-phenyl)-5-trifluoromethyl-2H-pyrazol-3-yl]-piperidin-1-yl}-3,3,3-trifluoro-2-hydroxy-2-methyl-propan-1-one]	300 to 3000 nM	< 300 nM	300 to 3000 nM
C[C@@](O)(C(=O)N1CCC(c2cc(C(F)(F)F)nn2-c2ccccc2)CC1)C(F)(F)F [Compound A43, (R)-1-[4-(2-Phenyl-5-trifluoromethyl-2H-pyrazol-3-yl)-piperidin-1-yl]-3,3,3-trifluoro-2-hydroxy-2-methyl-propan-1-one]	300 to 3000 nM	< 300 nM	300 to 3000 nM
CC1CN(C(=O)[C@@](C)(O)C(F)(F)F)CCC1c1ccn(-c2ccc(F)cc2)n1 (stereo partly drawn) [Compound A44, (R)-1-{4-[1-(4-Fluoro-phenyl)-1H-pyrazol-3-yl]-3-methyl-piperidin-1-yl}-3,3,3-trifluoro-2-hydroxy-2-methyl-propan-1-one]	300 to 3000 nM	< 300 nM	300 to 3000 nM
C[C@@H]1CN(C(=O)[C@@](C)(O)C(F)(F)F)CC[C@@H]1c1ccn(-c2ccc(F)cc2)n1 [Compound A46, (R)-3,3,3-Trifluoro-1-{(3S,4S)-4-[1-(4-fluoro-phenyl)-1H-pyrazol-3-yl]-3-methyl-piperidin-1-yl}-2-hydroxy-2-methyl-propan-1-one]	< 300 nM	< 300 nM	300 to 3000 nM
